{
  "source": "patent US7989405B2",
  "about": "“Prevention of microbial growth in metal working fluids” (Illinois Tool Works Inc., priority 2001, dated 2011)",
  "origin": "cited, not measured here",
  "key": {"[1]": {"system": "Saccharomyces cerevisiae", "settings": "Fungal: Saccharomyces cerevisiae"}, "[2]": {"system": "Aspergillus niger", "settings": "Fungal: Aspergillus niger"}, "[3]": {"system": "Escherischia coli", "settings": "Bacterial: Escherischia coli"}, "[4]": {"system": "Enterobacter aerogenes", "settings": "Bacterial: Enterobacter aerogenes"}, "[5]": {"system": "Staphylococcus aureus", "settings": "Bacterial: Staphylococcus aureus"}, "[6]": {"system": "Fusarium moniliforme", "settings": "Fungal: Fusarium moniliforme"}, "[7]": {"system": "Pseudomonas aeruginosa", "settings": "Bacterial: Pseudomonas aeruginosa"}},
  "data": [
    {"smiles": "CCC12COCN1COC2", "note": "[Bioban CS-1246, 7a-ethyldihydro-1H,3H,5H-oxazolo(3,4-c)oxazole]", "values": [
      {"measurement": "MIC", "setting": "[1]", "result": "16-33 parts per million"},
      {"measurement": "MIC", "setting": "[2]", "result": "65-125 parts per million"},
      {"measurement": "MIC", "setting": "[3]", "result": "450-500 parts per million"},
      {"measurement": "MIC", "setting": "[4]", "result": "250-300 parts per million"},
      {"measurement": "MIC", "setting": "[5]", "result": "200-250 parts per million"},
      {"measurement": "MIC", "setting": "[6]", "result": "125-250 parts per million"},
      {"measurement": "MIC", "setting": "[7]", "result": "800-850 parts per million"},
      {"measurement": "irritation of eyes and skin", "setting": "as supplied", "result": "irritating to eyes and skin"},
      {"measurement": "mutagenicity", "setting": "as supplied", "result": "non-mutagenic"},
      {"measurement": "sensitisation", "setting": "as supplied", "result": "not a sensitising agent"},
      {"measurement": "toxicity by inhalation and skin contact", "setting": "as supplied", "result": "harmful by inhalation and in contact with the skin"},
      {"measurement": "hazard", "setting": "at typical use dilutions", "result": "no hazard"}
    ]}
  ]
}
